Measurements published in patent US20230321055A1, “PREVENTIVE TREATMENT OF MIGRAINE” (priority 2022, published 2023).

Tested on: participants with chronic migraine
Test: Same phase 3 study: patient-reported outcomes (MSQ v2.1, AIM-D, HIT-6, WPAI, PGI-C, treatment satisfaction, EQ-5D-5L)
Format: in vivo, human
Settings: for Change from Baseline in HIT-6 total score at Week 12, LS Mean / Change from Baseline in HIT-6 total score at Week 12, LSMD Atogepant vs. Placebo / Change from Baseline in MSQ v2.1 Role Function - Restrictive Domain Score at Week 12, LS Mean / Change from Baseline in MSQ v2.1 Role Function - Restrictive Domain Score at Week 12, LSMD Atogepant vs. Placebo: Off-Treatment Hypothetical Estimand population
Excerpt: The MSQ v2.1 is a 14-item questionnaire designed to measure health-related quality of life impairments attributed to migraine in the past 4 weeks. It is divided into three domains: Role Function Restrictive assesses how migraines limit one's daily social and work-related activities; Role Function Preventive assesses how migraines prevent these activities; and the Emotional Function domain assesses the emotions associated with migraine. Participants respond to items using a 6-point scale ranging from “none of the time” to “all of the time.” Raw dimension scores are computed as a sum of item responses and rescaled to a 0 to 100 scale, where higher scores indicate better quality of life.
The AIM-D (Activity Impairment in Migraine — Diary) is an 11-function daily diary measure that assesses the impact of migraine. It is comprised of two domains that evaluate performance of daily activities (PDA: 7 items) and physical impairment (PI: 4 items). […] The AIM-D was developed as an electronic daily diary with the same set of questions administered in headache and non-headache versions. Raw domain scores are rescaled to a 0 to 100 scale, where higher scores indicate greater impact of migraine.
The HIT-6 (Headache Impact Test) is a 6-question assessment used to measure the impact headaches have on a participant's ability to function on the job, at school, at home, and in social situations. It assesses the effect that headaches have on normal daily life and the participant's ability to function. Responses are based on frequency using a 5-point scale ranging from “never” to “always.” The HIT-6 total score, which ranges from 36 to 78, is the sum of the responses—each of which is assigned a score ranging from 6 points (never) to 13 points (always)—with higher scores indicating larger impact due to headache. Yang et al., “Validation of the Headache Impact Test (HIT-6™) across episodic and chronic migraine”, Cephalalgia, 2011 February; 31(3): 357−367.
Secondary endpoints included change from baseline in mean monthly headache days across the 12 week treatment period; change from baseline in mean monthly acute medication use days across the 12-week treatment period; at least a 50% reduction in mean monthly migraine days across the 12-week treatment period; change from baseline in MSQ v2.1 Role Function-Restrictive domain score at week 12; change from baseline in mean AIM-D monthly functioning and activity impairment score across the 12-week treatment period; and change from baseline in HIT-6 total score at week 12.
FIG. 8 and Table 5 show the change from baseline in AIM-D Performance of Daily Activities at Weeks 1-4, 5-8, and 9-12 and across 12 weeks. FIG. 9 and Table 6 show change from baseline in WPAI Overall Work Productivity Loss at Weeks 1-4, 5-8, and 9-12. […] A graphical approach with weighted Bonferroni test procedure was used to control the overall type I error rate at the 2-sided α=0.05 level for key secondary endpoint comparisons between each atogepant dose vs placebo. For exploratory endpoints, nominal P values were provided without adjusting for multiplicity.
Patient-reported outcome (PRO) measures included the Performance of Daily Activities (PDA) and Physical Impairment (PI) domains of the Activity Impairment in Migraine-Diary (AIM-D), and the 5-level European Quality of Life-5 Dimension (EQ-5D-5L) descriptive system and visual analogue scale (VAS), implemented via daily diary. Scores in each domain were transformed to a 0-100 scale with higher scores indicating a greater burden from migraine. Changes in PDA and PI scores and the proportion of participants achieving clinically meaningful within-patient change in the PDA domain (≥12.5 points) and PI domain (≥10 points) were compared between participants who received atogepant vs placebo. EQ-5D-5L measures 5 dimensions of QOL, including mobility, self-care, usual activities, pain/discomfort, and anxiety/depression. […]

[1] = 30 mg BID, week 12, mITT, listed as atogepant
[2] = 60 mg QD, week 12, mITT, listed as atogepant
[3] = 60 mg, within the first 2 weeks
[4] = both doses (30 mg BID, 60 mg QD), all time points

C[C@@H]1[C@H](c2c(F)ccc(F)c2F)C[C@H](NC(=O)c2cnc3c(c2)C[C@@]2(C3)C(=O)Nc3ncccc32)C(=O)N1CC(F)(F)F [Atogepant, (S)—N—((3S,5S,6R)-6-methyl-2-oxo-1-(2,2,2-trifluoroethyl)-5-(2,3,6-trifluorophenyl)piperidin-3-yl)-2′-oxo-1′,2′,5,7-tetrahydrospiro[cyclopenta[b]pyridine-6,3′-pyrrolo[2,3-b]pyridine]-3-carboxamide]
Change from Baseline in HIT-6 total score at Week 12, LS Mean (30 mg BID): −8.47 | Change from Baseline in HIT-6 total score at Week 12, LSMD Atogepant vs. Placebo (30 mg BID): −3.30 | Change from Baseline in MSQ v2.1 Role Function - Restrictive Domain Score at Week 12, LS Mean (30 mg BID): 24.74 | Change from Baseline in MSQ v2.1 Role Function - Restrictive Domain Score at Week 12, LSMD Atogepant vs. Placebo (30 mg BID): 7.43 | Change from Baseline in WPAI Overall Work Productivity Loss, LSMD vs placebo (30 mg BID, Week 4): −12.69 | Change from Baseline in WPAI Overall Work Productivity Loss, LSMD vs placebo (30 mg BID, Week 8): −8.61 | Change from Baseline in AIM-D Performance of Daily Activities, LSMD vs placebo (30 mg BID, Weeks 1-4): −5.44 | Change from Baseline in AIM-D Performance of Daily Activities, LSMD vs placebo (30 mg BID, Weeks 5-8): −4.75 | Change from Baseline in AIM-D Performance of Daily Activities, LSMD vs placebo (30 mg BID, Weeks 9-12): −4.36 | Change from baseline in MSQ v2.1 role function restrictive domain score at week 12, LS Mean (30 mg BID, mITT): 25.15 | Change from baseline in MSQ v2.1 role function restrictive domain score at week 12, LSMD Atogepant vs. Placebo (30 mg BID, mITT): 7.96 | Change from baseline in mean monthly performance of daily activities domain score of the AIM-D across the 12-week treatment period, LS Mean (30 mg BID, mITT): −14.29 | Change from baseline in mean monthly performance of daily activities domain score of the AIM-D across the 12-week treatment period, LSMD Atogepant vs. Placebo (30 mg BID, mITT): −4.85 | Change from baseline in mean monthly physical impairment domain score of the AIM-D across the 12-week treatment period, LS Mean (30 mg BID, mITT): −12.11 | Change from baseline in mean monthly physical impairment domain score of the AIM-D across the 12-week treatment period, LSMD Atogepant vs. Placebo (30 mg BID, mITT): −4.19 | Change from Baseline in WPAI Overall Work Productivity Loss, LSMD vs placebo (30 mg BID, week 12): −7.94 | MSQ v2.1 Emotional Function domain score change from baseline, LSMD vs placebo (30 mg BID, week 12): 6.36 | MSQ v2.1 Role Function-Preventive domain score change from baseline, LSMD vs placebo (30 mg BID, week 12): 8.10 | PGI-C responders (30 mg BID, week 12, mITT): 153/239 | PGI-C responders (much better or very much better), Percentage (30 mg BID, week 12, mITT): 64.0% | PGI-C responders, OR (95% CI) vs placebo (30 mg BID, week 12, mITT): 3.36 (2.29, 4.94) | Satisfaction with study medication (satisfied or extremely satisfied), Percentage (30 mg BID, week 12, mITT): 64.6% | Satisfaction with study medication responders (30 mg BID, week 12, mITT): 148/229 | Satisfaction with study medication, OR (95% CI) vs placebo (30 mg BID, week 12, mITT): 2.67 (1.82, 3.91) | PGI-C responders (much better or very much better), Percentage [1]: 64.0% | Satisfaction with study medication (satisfied or extremely satisfied), Percentage [1]: 64.6% | Change from Baseline in HIT-6 total score at Week 12, LS Mean (60 mg QD): −7.83 | Change from Baseline in HIT-6 total score at Week 12, LSMD Atogepant vs. Placebo (60 mg QD): −2.66 | Change from Baseline in MSQ v2.1 Role Function - Restrictive Domain Score at Week 12, LS Mean (60 mg QD): 23.09 | Change from Baseline in MSQ v2.1 Role Function - Restrictive Domain Score at Week 12, LSMD Atogepant vs. Placebo (60 mg QD): 5.78 | Change from Baseline in WPAI Overall Work Productivity Loss, LSMD vs placebo (60 mg QD, Week 4): −15.26 | Change from Baseline in WPAI Overall Work Productivity Loss, LSMD vs placebo (60 mg QD, Week 8): −11.33 | Change from Baseline in AIM-D Performance of Daily Activities, LSMD vs placebo (60 mg QD, Weeks 1-4): −4.44 | Change from Baseline in AIM-D Performance of Daily Activities, LSMD vs placebo (60 mg QD, Weeks 5-8): −3.59 | Change from Baseline in AIM-D Performance of Daily Activities, LSMD vs placebo (60 mg QD, Weeks 9-12): −2.11 | Change from baseline in MSQ v2.1 role function restrictive domain score at week 12, LS Mean (60 mg QD, mITT): 23.33 | Change from baseline in MSQ v2.1 role function restrictive domain score at week 12, LSMD Atogepant vs. Placebo (60 mg QD, mITT): 6.15 | Change from baseline in mean monthly performance of daily activities domain score of the AIM-D across the 12-week treatment period, LS Mean (60 mg QD, mITT): −12.82 | Change from baseline in mean monthly performance of daily activities domain score of the AIM-D across the 12-week treatment period, LSMD Atogepant vs. Placebo (60 mg QD, mITT): −3.38 | Change from baseline in mean monthly physical impairment domain score of the AIM-D across the 12-week treatment period, LS Mean (60 mg QD, mITT): −10.63 | Change from baseline in mean monthly physical impairment domain score of the AIM-D across the 12-week treatment period, LSMD Atogepant vs. Placebo (60 mg QD, mITT): −2.71 | participants achieving clinically relevant reduction with AIM-D PDA of ≥12.5 (60 mg QD, week 1): 42.9% | participants achieving clinically relevant reduction with AIM-D PI of ≥10 (60 mg QD, week 1): 43.7% | AIM-D PDA change from baseline, LSMD vs placebo (60 mg QD, week 1, mITT): −5.83 | AIM-D PI change from baseline, LSMD vs placebo (60 mg QD, week 1, mITT): −4.12 | Change from Baseline in WPAI Overall Work Productivity Loss, LSMD vs placebo (60 mg QD, week 12): −9.64 | MSQ v2.1 Emotional Function domain score change from baseline, LSMD vs placebo (60 mg QD, week 12): 6.81 | MSQ v2.1 Role Function-Preventive domain score change from baseline, LSMD vs placebo (60 mg QD, week 12): 6.86 | PGI-C responders (60 mg QD, week 12, mITT): 130/246 | PGI-C responders (much better or very much better), Percentage (60 mg QD, week 12, mITT): 52.8% | PGI-C responders, OR (95% CI) vs placebo (60 mg QD, week 12, mITT): 2.16 (1.48, 3.15) | Satisfaction with study medication (satisfied or extremely satisfied), Percentage (60 mg QD, week 12, mITT): 59.2% | Satisfaction with study medication responders (60 mg QD, week 12, mITT): 138/233 | Satisfaction with study medication, OR (95% CI) vs placebo (60 mg QD, week 12, mITT): 2.16 (1.49, 3.15) | PGI-C responders (much better or very much better), Percentage [2]: 52.8% | Satisfaction with study medication (satisfied or extremely satisfied), Percentage [2]: 59.2% | EQ-5D-5L VAS score, LSMD vs placebo [3]: 4.47 | mean EQ-5D-5L descriptive system score, LSMD vs placebo [3]: 0.04 | proportion meeting HIT-6 responder criteria (score reduction ≥5 points) vs placebo (all time points and doses, nominal P<0.001): nominally significantly greater | WPAI activity impairment vs. placebo [4]: Nominally significant improvements | WPAI presenteeism vs. placebo [4]: Nominally significant improvements | WPAI absenteeism vs. placebo (both doses (30 mg BID, 60 mg QD), weeks 4 and 12): Nominally significant improvements | HIT-6 scores vs placebo (both doses, weeks 4 and 8, nominal P<0.001): nominally significant improvements
